In ChEMBL document CHEMBL1275461, “Early bactericidal activity and pharmacokinetics of the diarylquinoline TMC207 in treatment of pulmonary tuberculosis” (Antimicrob Agents Chemother, 2008):
In brackets after ≈: the same amount, converted by molar mass. Activity calls are given as the source filed them. The rule behind the calls is not given here.

What was measured:
[1] = test system: Mycobacterium tuberculosis; experiment: Bactericidal activity against Mycobacterium tuberculosis selected on 100 times compound MIC measured after 6 days; assay type: functional, organism-based
[2] = test system: Mycobacterium tuberculosis; experiment: Antimicrobial activity against drug-resistant Mycobacterium tuberculosis; assay type: functional
[3] = test system: Mycobacterium tuberculosis; experiment: Bactericidal activity against Mycobacterium tuberculosis selected on 10 times compound MIC measured after 6 days; assay type: functional, organism-based

## COc1nc2ccc(Br)cc2cc1[C@@H](c1ccccc1)[C@@](O)(CCN(C)C)c1cccc2ccccc12 [BEDAQUILINE]
[1]
  Activity: Active
[2]
  MIC: 0.03 µg/mL (≈ 0.054 µM)
[3]
  Activity: Active
